# Test results from ChEMBL document CHEMBL3769378, “Protective effect and mechanism of action of saponins isolated from the seeds of gac (Momordica cochinchinensis Spreng.) against cisplatin-induced damage in LLC-PK1 kidney cells” (2016).
# Activity calls are given as the source filed them. The calls are words filed in the database; no cut-off is given here.
# Tests used:
# LLC-PK1 [1] = experiment: Renoprotective activity in pig LLC-PK1 cells assessed as reduction in cisplatin-induced toxicity by measuring cell viability at 5 to 50 uM after 24 hrs by MTT assay relative to control; assay type: functional
# LLC-PK1 [2] = experiment: Renoprotective activity in pig LLC-PK1 cells assessed as reduction in cisplatin-induced toxicity by measuring cell viability after 24 hrs by MTT assay; assay type: functional, cell-based; settings: Sus scrofa
# LLC-PK1 [3] = experiment: Inhibition of cisplatin-induced apoptosis in pig LLC-PK1 cells at 50 uM after 24 hrs by annexin V-Alexa Fluor 488/propidium iodide staining-based flow cytometry; assay type: functional, cell-based; settings: Sus scrofa
# LLC-PK1 [4] = experiment: Inhibition of cisplatin-induced JNK phosphorylation in pig LLC-PK1 cells at 50 uM after 24 hrs by Western blotting method; assay type: cell-based; settings: Sus scrofa
# LLC-PK1 [5] = experiment: Inhibition of cisplatin-induced p38 phosphorylation in pig LLC-PK1 cells at 50 uM after 24 hrs by Western blotting method; assay type: cell-based; settings: Sus scrofa
# LLC-PK1 [6] = experiment: Inhibition of cisplatin-induced caspase-3 activity in pig LLC-PK1 cells assessed as decrease in cleaved caspase 3 level at 50 uM after 24 hrs by Western blotting method; assay type: functional, cell-based; settings: Sus scrofa
SMILES,Activity (LLC-PK1 [1]; Sus scrofa),Activity (LLC-PK1 [2]),Activity (LLC-PK1 [1]),inhibition (LLC-PK1 [3]),inhibition (LLC-PK1 [4]),inhibition (LLC-PK1 [5]),inhibition (LLC-PK1 [6])
C[C@@H]1O[C@@H](O[C@H]2[C@H](O)[C@@H](C(=O)O)O[C@@H](O[C@@H]3CC[C@]4(C)[C@H](CC[C@@]5(C)[C@H]4CC=C4[C@H]6CC(C)(C)CC[C@@]6(C(=O)O[C@@H]6O[C@H](C)[C@H](O)[C@H](O)[C@H]6O[C@H]6O[C@H](C)[C@@H](O[C@H]7OC[C@H](O)[C@@H](O)[C@@H]7O)[C@H](O[C@H]7O[C@@H](CO)[C@H](O)[C@@H](O[C@@H]8OC[C@@H](O)[C@H](O)[C@H]8O)[C@@H]7O)[C@@H]6O)CC[C@@]45C)[C@@]3(C)C=O)[C@@H]2O[C@@H]2O[C@H](CO)[C@H](O)[C@H](O)[C@H]2O)[C@H](O)[C@H](O)[C@H]1O,Active,,,,,,
C[C@H]1O[C@H](O[C@H]2[C@H](O)[C@@H](C(=O)O)O[C@@H](O[C@@H]3CC[C@]4(C)[C@H](CC[C@@]5(C)[C@H]4CC=C4[C@H]6CC(C)(C)CC[C@@]6(C(=O)O)[C@@H](O)C[C@@]45C)[C@@]3(C)C=O)[C@@H]2O[C@H]2O[C@@H](CO)[C@@H](O)[C@@H](O)[C@@H]2O)[C@@H](O)[C@@H](O)[C@@H]1O,,Dose-dependent effect,<=80%,Active,Active,Active,Active
C[C@H]1O[C@H](O[C@H]2[C@H](O)[C@@H](C(=O)O)O[C@@H](O[C@@H]3CC[C@]4(C)[C@H](CC[C@@]5(C)[C@H]4CC=C4[C@H]6CC(C)(C)CC[C@@]6(C(=O)O)CC[C@@]45C)[C@@]3(C)C=O)[C@@H]2O[C@H]2O[C@@H](CO)[C@@H](O)[C@@H](O)[C@@H]2O)[C@@H](O)[C@@H](O)[C@@H]1O,,Dose-dependent effect,<=80%,Active,Active,Active,Active
